Test results as given in PMC11883000, “Structure-function relationship of ASH1L and histone H3K36 and H3K4 methylation” (Nature Communications, 2025).

Key:
mouse ES cells [1] = assay: qPCR of gene expression in mouse ES cells, RA-induced differentiation; type: cell-based; details: for HoxA9 relative expression / Neurog2 relative expression / Olig1 relative expression / Runx1 relative expression: + RA 2 days, qPCR
Description: J1 ESCs were cultured feeder free on 0.1% gelatin-coated plates in ESC culture medium (Dulbecco’s modified Eagle’s medium (Hi-glucose), supplemented with 15% fetal bovine serum (Corning), non-essential amino acids, L-glutamine, β-mercaptoethanol, 1% penicillin/streptomycin, sodium pyruvate and 1000 U/mL leukemia inhibitory factor (LIF) (Ebioscience, 34-8521-82). For embryoid body formation, mouse ES cells were dissociated from gelatin-coated plates and seeded on non-adherent cell culture dishes (Greiner) at a density of 1 × 10^5 cells/mL in 10 mL of differentiation medium (ESC culture medium without LIF). Media was exchanged every 48 h and cells were collected at indicated time course. For neuronal differentiation, cells were plated on gelatin-coated plates at a density of 1×10^4 cells/cm^2 in ESC culture medium. The following day, medium was exchanged to differentiation medium +1 μM retinoic acid (RA) (Sigma) to induce differentiation. Medium was exchanged every 48 h for indicated time course.
Total RNA was extracted with RNeasy Mini Kit (QIAGEN) and reverse transcribed using Superscript III Reverse Transcriptase (Life Technologies). qPCR analysis was performed using Brilliant III Ultra Fast SYBR Green QPCR Master Mix (Agilent Technologies). Gene expression data were normalized against Hprt/Gapdh and represented as fold change relative to the control. The relative expression values are shown as mean ± S.D. For ChIP-qPCR, chromatin occupancy was calculated as the ratio of the amount of immunoprecipitated DNA to that of the input sample (% input).
CRISPR/Cas9 mediated editing was performed essentially as described. The designed gRNA ([…]) was cloned into the pSpCas9(BB)-2A-GFP (PX458) plasmid (a gift from Feng Zhang) and miniprepped using standard DNA miniprep procedures (Qiagen). J1 mES cells were transfected with sgRNAs or empty vector with Lipofectamine 2000 (ThermoFisher). Transfected cells were isolated by FACS at the Mount Sinai Flow Cytometry Core facility, and a single cell was plated per well in 96-well plates. Cells were cultured for 2-3 weeks until single colonies were visible. Cells were harvested and DNA was extracted using the QuickExtract solution (Epibio). PCR was performed using the following primers: Ash1l, F:TAGAAAGTCTGCACGGGCG, R:[…], Nestin, F:[…], R:[…], HoxA9, F:[…], R: […], Pax6, F:[…], R:[…], Gata4, F: […], R: […], Sox7, F:[…], R:[…], Pou5f1, F:[…], R:CAGGGCTTTCATGTCCTGG, Brachyury, F:GAGAGCGCAGGGAAGAGC, R:[…], Nkx2-5, F:[…], R:[…].

[2] = system: Meis2 enhancer and promoter sites; assay: ChIP-qPCR of Ash1l occupancy at Meis2 promoter and enhancers; type: cell-based, mouse; details: for Ash1l occupancy, Meis2 Enh 1 / Ash1l occupancy, Meis2 Enh 2 / Ash1l occupancy, Meis2 Enh 3 / Ash1l occupancy, Meis2 promoter: Ash1l ChIP, + RA
Description: J1 ESCs were cultured feeder free on 0.1% gelatin-coated plates in ESC culture medium (Dulbecco’s modified Eagle’s medium (Hi-glucose), supplemented with 15% fetal bovine serum (Corning), non-essential amino acids, L-glutamine, β-mercaptoethanol, 1% penicillin/streptomycin, sodium pyruvate and 1000 U/mL leukemia inhibitory factor (LIF) (Ebioscience, 34-8521-82). For embryoid body formation, mouse ES cells were dissociated from gelatin-coated plates and seeded on non-adherent cell culture dishes (Greiner) at a density of 1 × 10^5 cells/mL in 10 mL of differentiation medium (ESC culture medium without LIF). Media was exchanged every 48 h and cells were collected at indicated time course. For neuronal differentiation, cells were plated on gelatin-coated plates at a density of 1×10^4 cells/cm^2 in ESC culture medium. The following day, medium was exchanged to differentiation medium +1 μM retinoic acid (RA) (Sigma) to induce differentiation. Medium was exchanged every 48 h for indicated time course. Total RNA was extracted with RNeasy Mini Kit (QIAGEN) and reverse transcribed using Superscript III Reverse Transcriptase (Life Technologies). qPCR analysis was performed using Brilliant III Ultra Fast SYBR Green QPCR Master Mix (Agilent Technologies). Gene expression data were normalized against Hprt/Gapdh and represented as fold change relative to the control. The relative expression values are shown as mean ± S.D. For ChIP-qPCR, chromatin occupancy was calculated as the ratio of the amount of immunoprecipitated DNA to that of the input sample (% input).

mouse ES cells [3] = assay: RNA-seq analysis of differentiated mouse ES cells; type: cell-based; details: RNA-seq data of ref 19
Description: RNA-seq data reported by Yin et al.[19] was analyzed to compare RNA from undifferentiated mouse ES cells to RNA from mouse ES cells differentiated under various conditions, as described in Fig. 1. Reads were filtered using Trimmomatic v0.40 and mapped to the mouse reference genome (mm9) by TopHat (version 2.0.10). Fragments were enumerated to the UCSC reference transcriptome using the hseq-count function from the HTSeq package (version 0.6.0). Genes with <5 fragments were filtered out and gene expression changes (FC > 1.5, FDR < 0.01) were analyzed using DESeq2 (v1.42.1), with undifferentiated cells as controls. Heatmaps were generated using either the ggplot2 or pheatmap packages with z-score normalization.
Supplementary Figure 1. Analysis of RNA-seq data reported by Yin et al. (ref. 19),
comparing RNA from undifferentiated mouse ES cells to RNA from mouse ES cells
differentiated under multiple conditions (see Figure 1). Gene expression changes (FC >
1.5, FDR < 0.01 ) in 4-day RA differentiated cells were identified using DESeq2, with
undifferentiated cells as controls.
after RA treatment. Related to Figure 1.
(1 picture or pasted object on this page, not shown here)

Ash1l = assay: Western blot of Ash1l protein expression level; type: cell-based, mouse; details: retinoic acid for 6 days

CC1=C(/C=C/C(C)=C/C=C/C(C)=C/C(=O)O)C(C)(C)CCC1 [RA, retinoic acid]
HoxA9 relative expression (mouse ES cells [1]; WT mES cells, replicate 1): 83.8652 | Neurog2 relative expression (mouse ES cells [1]; WT mES cells, replicate 1): 4.681 | Olig1 relative expression (mouse ES cells [1]; WT mES cells, replicate 1): 5.04 | Runx1 relative expression (mouse ES cells [1]; WT mES cells, replicate 1): 31.4139 | HoxA9 relative expression (mouse ES cells [1]; WT mES cells, replicate 2): 95.0095 | Neurog2 relative expression (mouse ES cells [1]; WT mES cells, replicate 2): 6.712 | Olig1 relative expression (mouse ES cells [1]; WT mES cells, replicate 2): 5.327 | Runx1 relative expression (mouse ES cells [1]; WT mES cells, replicate 2): 47.9458 | HoxA9 relative expression (mouse ES cells [1]; WT mES cells, replicate 3): 128.89 | Neurog2 relative expression (mouse ES cells [1]; WT mES cells, replicate 3): 11.2096 | Olig1 relative expression (mouse ES cells [1]; WT mES cells, replicate 3): 5.4768 | Runx1 relative expression (mouse ES cells [1]; WT mES cells, replicate 3): 42.0296 | transcriptional expression of Ash1l (mouse ES cells [1]; qPCR time course, RA-induced differentiation): dramatic and time-dependent increase | expression of HoxA9, Runx1, Neurog2, and Olig1 in CRISPR/Cas9 edited B7 clone (mouse ES cells [1]; retinoic acid, two days): altered expression | HoxA9 relative expression (mouse ES cells [1]; ΔAsh1l B7 clone, replicate 1): 9.646 | Neurog2 relative expression (mouse ES cells [1]; ΔAsh1l B7 clone, replicate 1): 28.3773 | Olig1 relative expression (mouse ES cells [1]; ΔAsh1l B7 clone, replicate 1): 3.982 | Runx1 relative expression (mouse ES cells [1]; ΔAsh1l B7 clone, replicate 1): 2.976 | HoxA9 relative expression (mouse ES cells [1]; ΔAsh1l B7 clone, replicate 2): 8.282 | Neurog2 relative expression (mouse ES cells [1]; ΔAsh1l B7 clone, replicate 2): 24.5333 | Olig1 relative expression (mouse ES cells [1]; ΔAsh1l B7 clone, replicate 2): 4.037 | Runx1 relative expression (mouse ES cells [1]; ΔAsh1l B7 clone, replicate 2): 2.4005 | HoxA9 relative expression (mouse ES cells [1]; ΔAsh1l B7 clone, replicate 3): 11.0043 | Neurog2 relative expression (mouse ES cells [1]; ΔAsh1l B7 clone, replicate 3): 29.378 | Olig1 relative expression (mouse ES cells [1]; ΔAsh1l B7 clone, replicate 3): 4.238 | Runx1 relative expression (mouse ES cells [1]; ΔAsh1l B7 clone, replicate 3): 2.591 | Ash1l occupancy, Meis2 Enh 1 ([2]; replicate 1): 0.01897 % input | Ash1l occupancy, Meis2 Enh 2 ([2]; replicate 1): 0.04268 % input | Ash1l occupancy, Meis2 Enh 3 ([2]; replicate 1): 0.02225 % input | Ash1l occupancy, Meis2 promoter ([2]; replicate 1): 0.06078 % input | Ash1l occupancy, Meis2 Enh 1 ([2]; replicate 2): 0.02319 % input | Ash1l occupancy, Meis2 Enh 2 ([2]; replicate 2): 0.04358 % input | Ash1l occupancy, Meis2 Enh 3 ([2]; replicate 2): 0.02683 % input | Ash1l occupancy, Meis2 promoter ([2]; replicate 2): 0.06121 % input | Ash1l occupancy, Meis2 Enh 1 ([2]; replicate 3): 0.01327 % input | Ash1l occupancy, Meis2 Enh 2 ([2]; replicate 3): 0.04413 % input | Ash1l occupancy, Meis2 Enh 3 ([2]; replicate 3): 0.02442 % input | Ash1l occupancy, Meis2 promoter ([2]; replicate 3): 0.05366 % input | Ash1l recruitment to promoter and enhancer sites of Meis2 ([2]; RA-induced ESC differentiation, ChIP-qPCR): recruited to promoter and enhancer sites | Ash1l expression upregulation (mouse ES cells [3]; 4 days RA differentiation, FDR < 0.01, vs undifferentiated): 1.96 fold | expression of Nsd1, all Mll family genes and several Plc genes (Ezh1, Ring1, Cbx7/8) (mouse ES cells [3]; RA differentiation): noticeably up-regulated | expression of Setd2, BRD2/3/4 and Ezh2 (mouse ES cells [3]; RA differentiation): down-regulated | Ash1l protein expression level (Ash1l): highest
